ChEMBL document CHEMBL2021770, “Potent and Selective Inhibitors of Long Chain l-2-Hydroxy Acid Oxidase Reduced Blood Pressure in DOCA Salt-Treated Rats” (ACS Med Chem Lett, 2011)
The source made the active and inactive calls. The calls are words filed in the database; no cut-off is given here.

Columns and labels:
2-Hydroxyacid oxidase 2 = target: T1, 2-Hydroxyacid oxidase 2 (Rattus norvegicus, UniProt Q07523); assay: Inhibition of rat His6-tagged Hao2 expressed in Escherichia coli BL21/DE3 using 2-hydroxyoctanoic acid as substrate measured every 10 secs by spectrophotometry
T1 sequence (Q07523 whole entry): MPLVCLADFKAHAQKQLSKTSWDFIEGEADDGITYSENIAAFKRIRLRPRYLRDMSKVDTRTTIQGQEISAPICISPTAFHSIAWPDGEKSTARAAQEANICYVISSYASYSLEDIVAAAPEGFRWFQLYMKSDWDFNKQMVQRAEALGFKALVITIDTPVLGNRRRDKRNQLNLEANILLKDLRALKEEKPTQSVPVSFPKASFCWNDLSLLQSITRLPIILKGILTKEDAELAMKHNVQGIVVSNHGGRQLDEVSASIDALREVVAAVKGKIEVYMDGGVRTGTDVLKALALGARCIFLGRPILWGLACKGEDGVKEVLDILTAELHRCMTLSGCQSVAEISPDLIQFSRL

Cytochrome P450 3A4 = Cytochrome P450 3A4 (Homo sapiens, UniProt P08684); assay: Inhibition of CYP3A4; type: ADME
Cytochrome P450 2C9 = Cytochrome P450 2C9 (Homo sapiens, UniProt P11712); assay: Inhibition of CYP2C9; type: ADME
Cytochrome P450 2D6 = Cytochrome P450 2D6 (Homo sapiens, UniProt P10635); assay: Inhibition of CYP2D6; type: ADME
Cytochrome P450 2C19 = Cytochrome P450 2C19 (Homo sapiens, UniProt P33261); assay: Inhibition of CYP2C19; type: ADME
Cytochrome P450 1A2 = target: T2, Cytochrome P450 1A2 (Homo sapiens, UniProt P05177); assay: Inhibition of CYP1A2; type: ADME
T2 sequence (P05177 whole entry): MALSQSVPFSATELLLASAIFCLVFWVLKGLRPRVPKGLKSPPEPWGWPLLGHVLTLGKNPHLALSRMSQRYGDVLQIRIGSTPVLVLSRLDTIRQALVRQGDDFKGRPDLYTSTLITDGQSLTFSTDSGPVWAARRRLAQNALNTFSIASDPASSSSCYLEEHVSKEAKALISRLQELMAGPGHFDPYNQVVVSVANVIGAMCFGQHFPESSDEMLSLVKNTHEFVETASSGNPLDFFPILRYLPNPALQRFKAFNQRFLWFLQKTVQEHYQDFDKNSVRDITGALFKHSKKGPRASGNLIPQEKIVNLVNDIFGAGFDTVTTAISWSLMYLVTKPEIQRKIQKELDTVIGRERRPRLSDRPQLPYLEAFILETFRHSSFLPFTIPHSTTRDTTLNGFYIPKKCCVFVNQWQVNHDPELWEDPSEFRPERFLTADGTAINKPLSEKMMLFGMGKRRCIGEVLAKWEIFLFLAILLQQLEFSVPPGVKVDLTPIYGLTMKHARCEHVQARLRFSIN

[1] = Induction of cytochrome P450 at 10 uM; type: ADME
[2] = Plasma protein binding in rat; type: ADME, cell-free; conditions: read-out: PPB
[3] = target: T3, Nuclear receptor subfamily 1 group I member 2 (Homo sapiens, UniProt O75469); assay: Induction of PXR at 100 uM
T3 sequence (O75469 whole entry): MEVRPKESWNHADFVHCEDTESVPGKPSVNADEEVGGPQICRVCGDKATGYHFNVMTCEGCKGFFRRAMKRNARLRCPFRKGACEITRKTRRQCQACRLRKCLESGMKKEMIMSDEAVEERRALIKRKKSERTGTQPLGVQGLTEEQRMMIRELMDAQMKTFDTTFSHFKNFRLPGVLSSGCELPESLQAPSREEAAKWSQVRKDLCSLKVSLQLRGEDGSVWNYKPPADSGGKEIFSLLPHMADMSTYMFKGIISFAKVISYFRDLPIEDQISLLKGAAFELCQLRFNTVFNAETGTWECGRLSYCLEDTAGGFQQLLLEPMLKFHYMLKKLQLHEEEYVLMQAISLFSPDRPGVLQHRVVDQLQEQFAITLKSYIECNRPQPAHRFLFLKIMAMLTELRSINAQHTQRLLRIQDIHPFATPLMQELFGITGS

[4] = Clearance in rat at 1 mg/kg, iv; type: ADME, organism-based; design: dose 1 mg/kg, route intravenous; conditions: in vivo
[5] = Volume of distribution at steady state in rat at 1 mg/kg, iv; type: ADME, organism-based; design: dose 1 mg/kg, route intravenous; conditions: in vivo, read-out: Vdss
[6] = Cmax in rat at 10 mg/kg, po; type: ADME, organism-based; design: dose 10 mg/kg, route oral; conditions: in vivo
[7] = Tmax in rat at 10 mg/kg, po; type: ADME, organism-based; design: dose 10 mg/kg, route oral; conditions: in vivo
[8] = AUC (0 to 8 hrs) in rat at 1 mg/kg, iv; type: ADME, organism-based; design: time < 8 hr, dose 1 mg/kg, route intravenous; conditions: plasma
[9] = AUC (0 to 8 hrs) in rat at 10 mg/kg, po; type: ADME, organism-based; design: time < 8 hr, dose 10 mg/kg, route oral; conditions: plasma
[10] = Elimination half life in rat at 1 mg/kg, iv; type: ADME, organism-based; design: dose 1 mg/kg, route intravenous; conditions: in vivo, read-out: beta t1/2 (converted)
[11] = Elimination half life in rat at 10 mg/kg, po; type: ADME, organism-based; design: dose 10 mg/kg, route oral; conditions: in vivo, read-out: beta t1/2 (converted)
[12] = Oral bioavailability in rat at 10 mg/kg; type: ADME, organism-based; conditions: in vivo
[13] = Plasma concentration in Wistar rat at 3 mg/kg, po bid administered for 15 days measured 1 hr post-last dose; type: ADME, organism-based; design: dose 3 mg/kg, route oral
[14] = Plasma concentration in Wistar rat at 30 mg/kg, po bid administered for 15 days measured 1 hr post-last dose; type: ADME, organism-based; design: dose 30 mg/kg, route oral
Plasma [15] = assay: Plasma concentration in Wistar rat at 3 mg/kg, po bid administered for 15 days measured 12 to 15 hrs post-last dose; type: ADME, organism-based; design: dose 3 mg/kg, route oral; conditions: in vivo
Plasma [16] = assay: Plasma concentration in Wistar rat at 30 mg/kg, po bid administered for 15 days measured 12 to 15 hrs post-last dose; type: ADME, organism-based; design: dose 30 mg/kg, route oral; conditions: in vivo
Kidney [17] = assay: Drug uptake in Wistar rat kidney at 3 mg/kg, po bid administered for 15 days measured 1 hr post-last dose; type: ADME, organism-based; design: dose 3 mg/kg, route oral; conditions: in vivo
Kidney [18] = assay: Drug uptake in Wistar rat kidney at 30 mg/kg, po bid administered for 15 days measured 1 hr post-last dose; type: ADME, organism-based; design: dose 30 mg/kg, route oral; conditions: in vivo
Kidney [19] = assay: Drug uptake in Wistar rat kidney at 3 mg/kg, po bid administered for 15 days measured 12 to 15 hrs post-last dose; type: ADME, organism-based; design: dose 3 mg/kg, route oral; conditions: in vivo
[20] = Drug metabolism in rat liver microsomes assessed as metabolic rate per 0.125 mg/mL protein; type: ADME, Microsome
2-Hydroxyacid oxidase 1 = target: T4, 2-Hydroxyacid oxidase 1 (Rattus norvegicus, UniProt B0BNF9); assay: Inhibition of rat His6-tagged Hao1 expressed in Escherichia coli BL21/DE3 using glcolic acid as substrate measured every 10 secs by spectrophotometry
T4 sequence (B0BNF9 whole entry): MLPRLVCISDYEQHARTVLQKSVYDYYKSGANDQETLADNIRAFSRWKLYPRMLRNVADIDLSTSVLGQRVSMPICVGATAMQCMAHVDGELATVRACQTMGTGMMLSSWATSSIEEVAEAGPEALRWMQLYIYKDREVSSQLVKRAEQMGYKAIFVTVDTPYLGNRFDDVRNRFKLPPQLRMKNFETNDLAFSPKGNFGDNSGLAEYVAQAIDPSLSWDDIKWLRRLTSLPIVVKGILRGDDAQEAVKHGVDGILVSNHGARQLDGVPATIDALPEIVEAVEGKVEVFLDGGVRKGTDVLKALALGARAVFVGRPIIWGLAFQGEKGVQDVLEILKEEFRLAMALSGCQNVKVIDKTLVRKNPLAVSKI

[21] = target: Hydroxycarboxylic acid receptor 2 (Homo sapiens) (UniProt Q8TDS4); assay: Agonist activity at human GPR109a at 10 uM; type: functional
HepG2 = assay: Cytotoxicity against human HepG2 cells; type: cell-based
Rattus norvegicus [22] = assay: Antihypertensive activity in DOCA-salt treated Wistar rat assessed as decrease in systolic blood pressure at 3 mg/kg, po bid administered 29 days after DOCA-salt-challenge for 15 days 12 to 15 hrs post-last dose by plethysmography; type: functional
Rattus norvegicus [23] = assay: Antihypertensive activity in DOCA-salt treated Wistar rat assessed as decrease in systolic blood pressure at 30 mg/kg, po bid administered 29 days after DOCA-salt-challenge for 15 days 12 to 15 hrs post-last dose by plethysmography; type: functional, Artery
Kidney [24] = assay: Drug uptake in Wistar rat kidney at 30 mg/kg, po bid administered for 15 days measured 12 to 15 hrs post-last dose; type: ADME, organism-based; design: dose 30 mg/kg, route oral; conditions: in vivo
Rattus norvegicus [25] = assay: (§1) Ex-vivo inhibition of Hao2 in DOCA-salt treated Wistar rat kidney using [3H]-2-hydroxyoctanate as substrate assessed as inhibition of [3H]-H2O production at 3 mg/kg, po bid administered 29 days post DOCA-challenge for 15 days measured 1 hr post-last dose by microbeta counting relative to vehicle-treated control; type: functional
Rattus norvegicus [26] = assay: as §1, with “at 30” for “at 3”; type: functional
Rattus norvegicus [27] = assay: as §1, with “12 to 15 hrs” for “1 hr”; type: functional
Rattus norvegicus [28] = assay: as §1, with “at 30” for “at 3”, “measured 12 to 15 hrs” for “measured 1 hr”; type: functional
Rattus norvegicus [29] = assay: Antihypertensive activity in Wistar rat assessed as reduction in DOCA-salt-induced systolic blood pressure elevation at 30 mg/kg, po bid administered on day 14 post DOCA-challenge for 21 days measured 12 to 15 hrs post-last dose by plethysmography relative to vehicle-treated control; type: functional, organism-based; design: dose 30 mg/kg; conditions: Artery
Rattus norvegicus [30] = species on record: Rattus norvegicus; assay: Selectivity ratio of IC50 for rat Hao1 to IC50 for rat Hao2
[31] = target: T5, 2-Hydroxyacid oxidase 2 (Rattus norvegicus) (UniProt Q07523); assay: Inhibition of rat His6-tagged Hao2 expressed in Escherichia coli BL21/DE3 using 2-hydroxyoctanoic acid as substrate at 10 uM measured every 10 secs by spectrophotometry
T5 sequence (whole entry): T1 sequence (Q07523 whole entry)

Sequence of Cytochrome P450 2C9 (P11712 whole entry): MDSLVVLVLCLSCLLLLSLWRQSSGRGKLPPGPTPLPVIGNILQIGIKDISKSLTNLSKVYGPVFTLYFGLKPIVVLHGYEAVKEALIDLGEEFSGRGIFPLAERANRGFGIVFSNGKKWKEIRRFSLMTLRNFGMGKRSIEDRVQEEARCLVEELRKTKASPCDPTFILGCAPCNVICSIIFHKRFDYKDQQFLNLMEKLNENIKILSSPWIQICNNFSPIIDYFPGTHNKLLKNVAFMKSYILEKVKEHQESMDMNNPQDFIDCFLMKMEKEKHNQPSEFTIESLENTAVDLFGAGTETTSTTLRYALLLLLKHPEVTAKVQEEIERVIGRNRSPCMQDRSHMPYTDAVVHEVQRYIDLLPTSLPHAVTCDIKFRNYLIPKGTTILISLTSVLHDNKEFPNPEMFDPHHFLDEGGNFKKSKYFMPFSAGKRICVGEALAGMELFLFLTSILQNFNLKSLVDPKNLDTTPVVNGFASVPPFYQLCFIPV
Sequence of Cytochrome P450 2D6 (P10635 whole entry): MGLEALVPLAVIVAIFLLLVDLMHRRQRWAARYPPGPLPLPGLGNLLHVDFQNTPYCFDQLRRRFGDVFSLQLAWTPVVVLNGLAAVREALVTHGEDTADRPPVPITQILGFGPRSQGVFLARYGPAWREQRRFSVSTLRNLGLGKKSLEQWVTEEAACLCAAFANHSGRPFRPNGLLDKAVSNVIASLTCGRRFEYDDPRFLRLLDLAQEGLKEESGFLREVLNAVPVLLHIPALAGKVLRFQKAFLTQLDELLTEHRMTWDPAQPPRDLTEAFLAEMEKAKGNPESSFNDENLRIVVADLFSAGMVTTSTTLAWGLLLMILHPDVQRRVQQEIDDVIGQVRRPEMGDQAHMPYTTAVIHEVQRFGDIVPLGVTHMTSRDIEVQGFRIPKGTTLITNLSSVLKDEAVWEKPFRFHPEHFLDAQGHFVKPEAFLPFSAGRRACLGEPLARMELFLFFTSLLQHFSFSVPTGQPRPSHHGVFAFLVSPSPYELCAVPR
Sequence of Cytochrome P450 2C19 (P33261 whole entry): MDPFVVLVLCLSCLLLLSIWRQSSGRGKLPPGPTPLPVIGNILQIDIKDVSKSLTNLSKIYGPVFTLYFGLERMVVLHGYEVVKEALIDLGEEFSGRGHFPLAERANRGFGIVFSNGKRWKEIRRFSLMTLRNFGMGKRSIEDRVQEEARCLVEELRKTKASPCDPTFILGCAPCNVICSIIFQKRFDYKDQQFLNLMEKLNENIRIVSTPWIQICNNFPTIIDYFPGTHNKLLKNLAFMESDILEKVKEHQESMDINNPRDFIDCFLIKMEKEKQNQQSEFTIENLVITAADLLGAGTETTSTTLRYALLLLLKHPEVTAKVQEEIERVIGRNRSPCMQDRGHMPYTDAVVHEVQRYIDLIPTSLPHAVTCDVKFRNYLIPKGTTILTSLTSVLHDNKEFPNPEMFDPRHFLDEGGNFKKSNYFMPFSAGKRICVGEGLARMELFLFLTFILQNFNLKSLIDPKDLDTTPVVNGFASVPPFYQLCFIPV
Sequence of Cytochrome P450 3A4 (P08684 whole entry): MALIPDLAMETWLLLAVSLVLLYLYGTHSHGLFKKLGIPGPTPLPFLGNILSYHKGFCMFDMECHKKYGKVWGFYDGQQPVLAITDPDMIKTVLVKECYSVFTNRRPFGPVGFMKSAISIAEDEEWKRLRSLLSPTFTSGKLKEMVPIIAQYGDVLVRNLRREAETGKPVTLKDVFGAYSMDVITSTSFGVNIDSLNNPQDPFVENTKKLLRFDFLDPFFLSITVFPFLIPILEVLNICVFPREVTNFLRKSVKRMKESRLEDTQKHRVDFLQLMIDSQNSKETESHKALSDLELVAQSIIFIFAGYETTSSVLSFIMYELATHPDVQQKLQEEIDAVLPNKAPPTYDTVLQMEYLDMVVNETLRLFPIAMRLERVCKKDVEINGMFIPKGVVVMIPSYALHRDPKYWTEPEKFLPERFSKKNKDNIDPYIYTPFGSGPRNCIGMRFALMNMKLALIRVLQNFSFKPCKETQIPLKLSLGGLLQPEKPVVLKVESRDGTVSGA
Sequence of Hydroxycarboxylic acid receptor 2 (Homo sapiens) (Q8TDS4 whole entry): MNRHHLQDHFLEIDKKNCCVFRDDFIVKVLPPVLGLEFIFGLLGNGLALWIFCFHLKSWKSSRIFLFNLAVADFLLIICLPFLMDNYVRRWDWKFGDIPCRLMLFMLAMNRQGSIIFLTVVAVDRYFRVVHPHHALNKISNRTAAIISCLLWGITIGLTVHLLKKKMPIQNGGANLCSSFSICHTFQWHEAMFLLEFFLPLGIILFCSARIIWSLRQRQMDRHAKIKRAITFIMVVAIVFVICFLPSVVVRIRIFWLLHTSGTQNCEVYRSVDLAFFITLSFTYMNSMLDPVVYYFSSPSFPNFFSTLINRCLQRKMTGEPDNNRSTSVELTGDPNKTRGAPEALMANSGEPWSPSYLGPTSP

IC50 (2-Hydroxyacid oxidase 2) [µM] | IC50 (Cytochrome P450 3A4) [µM] | IC50 (Cytochrome P450 2C9) [µM] | IC50 (Cytochrome P450 2D6) [µM] | IC50 (Cytochrome P450 2C19) [µM] | IC50 (Cytochrome P450 1A2) [µM] | Activity [1] | fraction unbound [2] | Activity [3] | clearance [4] [mL/min/kg] | Vd [5] [L/kg] | Cmax [6] [µM] | Tmax [7] [h] | AUC(0-t) at 8 h [8] [µM·h] | AUC(0-t) at 8 h [9] [µM·h] | half-life [10] [h] | half-life [11] [h] | bioavailability [12] [%] | concentration at 1 h [13] [µM] | concentration at 1 h [14] [µM] | Structure (SMILES) | also measured
0.3 | > 10 | > 10 | > 10 | > 10 | > 10 | Not Active | < 0.01 | Not Active | 0.52 | 0.14 | 134 | 0.25 | 97 | 517 | 3.7 | 4.1 | 53 | 48 | 157 | Cc1[nH]nc(C(=O)O)c1Cc1cc2ccccc2s1 | concentration (Plasma [15]): 12 µM; concentration (Plasma [16]): 86 µM; Drug uptake (Kidney [17]): 34 nmol/g; Drug uptake (Kidney [18]): 113 nmol/g; Drug uptake (Kidney [19]): 13 nmol/g; Drug metabolism [20]: 0.02 nmol/min/mg
0.3 | > 10 | > 10 | > 10 | > 10 | > 10 | Not Active | < 0.01 | Not Active | 8 | 0.6 | 24 | 0.25 | 7.1 | 27 | 1.7 | 1.5 | 38 | 2.2 | 8 | Cc1n[nH]c(C(=O)O)c1Cc1cccc(-c2ccc(F)cc2)c1 | IC50 (2-Hydroxyacid oxidase 1): 45.7 µM; Activity [21]: inactive; IC50 (HepG2): > 100 µM; Activity (Rattus norvegicus [22]): 32 mmHg; Activity (Rattus norvegicus [23]): 31 mmHg; concentration (Plasma [15]): 0.2 µM; concentration (Plasma [16]): 1.9 µM; Drug uptake (Kidney [17]): 10 nmol/g; Drug uptake (Kidney [18]): 24 nmol/g; Drug uptake (Kidney [19]): 3 nmol/g; Drug uptake (Kidney [24]): 7 nmol/g; inhibition in vivo at 3 mg/kg (Rattus norvegicus [25]): 29%; inhibition in vivo at 30 mg/kg (Rattus norvegicus [26]): 38%; inhibition in vivo at 3 mg/kg (Rattus norvegicus [27]): 0%; inhibition in vivo at 30 mg/kg (Rattus norvegicus [28]): 28%; Activity (Rattus norvegicus [29]): Active; Ratio IC50 (Rattus norvegicus [30]): 150; Drug metabolism [20]: 0.003 nmol/min/mg
0.91 | – | – | – | – | – | – | – | – | – | – | – | – | – | – | – | – | – | – | – | Cc1[nH]nc(C(=O)O)c1CCc1ccc(-c2ccccc2)cc1 | –
– | – | – | – | – | – | – | – | – | – | – | – | – | – | – | – | – | – | – | – | Cc1n[nH]c(C(=O)O)c1-c1ccc(F)cc1 | inhibition [31]: 35%
